This is an account of results in US20220213138A1, “CYCLIC COMPOUNDS AND METHODS OF MAKING AND USING” (UNIVERSITY OF HONG KONG, priority 2019, published 2022).

Where two headings read alike, the source gives them in different places. Positions of bridges follow the written chain, without caps; N, C: chain ends. No end group written: not given here.

The conditions of data set [1]: crosslinker bond.
Another data set concerns Caco2 cells. Briefly: Fluorescence confocal imaging analysis of Caco2 cells. It is filed as cell-based. Conditions: 1 μL 10 mM peptide in 1 mL DMEM with 10% FBS, 2 hours at 37° C. As to the method: Caco2 cell line was provided by Prof. Jiang Xia (CUHK). A431 and HT116 cell lines were from Prof. Chiming Che (HKU). Caco2, A431 cells were cultured in DMEM supplemented with 10% FBS. HT116 cells were cultured in RPMI 1640 medium supplemented with 10% FBS. All cells were cultured in a humidified incubator at 37° C. with 5% CO2 supplemented. Cell culture medium and FBS were purchased from Gibco. Hoechst 33342 and DiI were purchased from Beyotime Biotechnology. Flow cytometry tubes were purchased from BD pharmacology.
Caco2 cells were cultured with the confluence of 60% in the 35 mm glass-bottom dish overnight. 1 mL fresh DMEM with 10% FBS was added to the dish. 1 μL 10 mM cyclic peptide (Ac-CPIEDRPMK-CONH2)-Fluorescein (cCK9′-F) (SEQ ID NO:27) in DMSO was added into the medium for 2 hours at 37° C. After two hours' incubation, the supernatant was discarded and the cells were washed with PBS for three times. The cells were replenished with PBS. Hoechst 33342 (final concentration: 2.5 μg/mL) and DiI (final concentration: 5 μM) were added into PBS for 10 min at room temperature. The supernatant was discarded. The cells were washed with PBS for three times and replenished with 3% polyaldehyde for imaging. All images were captured and processed via Leica Application Suit X at ×63 oil objective (Leica).

The subject of data set [2] is poorly differentiated colon carcinoma cells. As to conditions: Kelly, et al., Neoplasia 2003; cited from earlier work.
Setting [3] is: 24-membered ring, OPA, PBS pH 7.4/DMSO.
Setting [4] is: 21-membered ring, OPA, PBS pH 7.4/DMSO.
Setting [5] is: 27-membered ring, OPA, PBS pH 7.4/DMSO.
The mark [6] stands for this setting: crosslinker bond, 21-membered ring, OPA, then DMAC, PBS pH 7.4/DMSO, 2 steps.
Where [7] appears, read: crosslinker bond, 24-membered ring, OPA, then DMAC, PBS pH 7.4/DMSO, 2 steps.
Where [8] appears, read: crosslinker bond, 27-membered ring, OPA, then DMAC, PBS pH 7.4/DMSO, 2 steps.

Ac-ACFALPKG-CONH2 displayed a ring closure, conversion in data set [1] (setting [3]) of 92.5%.

In the case of Ac-AKVTMTCSAS-CONH2, the ring closure, conversion in data set [1] (setting [3]) came out at 99%.

Take Ac-CAHNLTHAK-CONH2: in data set [1] (33-membered ring, OPA), the ring closure, conversion worked out at 98%.

The substance Ac-CDWLPK-CONH2 registered a ring closure, conversion in data set [1] (setting [3]) of 89.1%.

Turning to Ac-CHHALTHAK-CONH2, the ring closure, conversion in data set [1] (33-membered ring, OPA) amounted to 98%.

In the case of Ac-ENPECILDKHVQRVM-CONH2, the ring closure, conversion is 98% in data set [1] (21-membered ring, OPA) and 93.6% in data set [1] (setting [4]).

Substance Ac-GAQCAFLK-CONH2 displayed a ring closure, conversion in data set [1] (setting [4]) of 83.3%.

Substance Ac-KAAAAAACF-CONH2 had a ring closure, conversion in data set [1] (30-membered ring, OPA) of 98%.

Ac-KAAAAACF-CONH2 gave a ring closure, conversion in data set [1] (27-membered ring, OPA) of 98%.

Ac-KAAAAACH-CONH2: in data set [1] (setting [5]), the ring closure, conversion was 98%.

Ac-KAAAACF-CONH2 gave a ring closure, conversion in data set [1] (24-membered ring, OPA) of 93%.

On to Ac-KAAAACH-CONH2, for which the ring closure, conversion in data set [1] (24-membered ring, OPA, PBS pH 7.4/DMSO, 0.53 mM) came to 92%.

Regarding Ac-KAAACF-CONH2, the ring closure, conversion in data set [1] (21-membered ring, OPA) worked out at 98%.

Turning to Ac-KAAACH-CONH2, the ring closure, conversion in data set [1] (setting [4]) stood at 98%.

With Ac-KGEAFQC-CONH2, the ring closure, conversion in data set [1] (setting [5]) was 90.9%.

In turn, Ac-NYRWRCKN-CONH2 yielded a ring closure, conversion in data set [1] (12-membered ring, OPA, PBS pH 7.4/DMSO) of 98%.

“Cyclo-(Ac-CPIEDRPMK-CONH2)-Fluorescein (Ac-CPIEDRPMK-NH2; linker (positions not given here) via OPA; also: fluorescein conjugate, site not given here) [cCK9′-F]”: the “imaging overlap with cell membrane dye (DiI)” value in the data set with Caco2 cells is “overlapped very well with cell membrane dye (DiI)”.

NH2-AAAAACF-CONH2 registered a ring closure, conversion in data set [1] (20-membered ring, OPA) of 98%.

In data set [1] (17-membered ring, OPA), NH2-AAAACF-CONH2 registered a ring closure, conversion of 96%.

In data set [1] (14-membered ring, OPA), NH2-AAACF-CONH2 displayed a ring closure, conversion of 98%.

In data set [1] (15-membered ring), “Phallodin analog (cyclo-(Dap-Ala-Hyp-Cys-(D)thr-Ala-Glu))” came in with a ring closure, conversion of 86.4%.

bicyclo-(CNSTKNLTFAMRSSGDYGEV) registered a ring closure, conversion in data set [1] (21-membered ring, OPA) of 90%.

In the case of bicyclo-(CNSTKNLTFAMRSSGDYGEV)-DMAC, the ring closure, yield after HPLC under setting [6] is 69%.

In the case of bicyclo-(CSQGTFTSDYSKYLDSRRAQ), the ring closure, conversion in data set [1] (36-membered ring, OPA) was 94%.

With bicyclo-(CSQGTFTSDYSKYLDSRRAQ)-DMAC, where the note is “crosslinker bond, 36-membered ring, OPA, then DMAC, PBS pH 7.4/DMSO, 2 steps”, the ring closure, yield after HPLC worked out at 65%.

Take bicyclo-(CSSLDEPGRGGFSSESKV): in data set [1] (15-membered ring, OPA), the ring closure, conversion was determined as 98%.

In turn, bicyclo-(CSSLDEPGRGGFSSESKV)-DMAC gave a ring closure, yield after HPLC (crosslinker bond, 15-membered ring, OPA, then DMAC, PBS pH 7.4/DMSO, 2 steps) of 43%.

As for bicyclo-(Dap-A-Hyp-C-t-A-E)-DMAC, the ring closure, yield after HPLC (crosslinker bond, 15-membered ring, 2 steps) came out at 65%.

Regarding cyclo-(Ac-ACFALPKG-CONH2)-DMAC, the ring closure, yield after HPLC under setting [7] was 48%.

Substance cyclo-(Ac-AKVTMTCSAS-CONH2)-DMAC registered a ring closure, yield after HPLC under setting [7] of 32%.

cyclo-(Ac-CDWLPK-CONH2)-DMAC displayed a ring closure, yield after HPLC under setting [7] of 31.9%.

In turn, cyclo-(Ac-ENPECILDKHVQRVM-CONH2)-DMAC showed a ring closure, yield after HPLC under setting [6] of 35%.

cyclo-(Ac-GAQCAFLK-CONH2)-DMAC registered a ring closure, yield after HPLC under setting [6] of 38%.

Turning to cyclo-(Ac-KAAAAACH-CONH2)-DMAC, the ring closure, yield after HPLC under setting [8] stood at 52.2%.

With cyclo-(Ac-KAAAACH-CONH2)-DMAC, the ring closure, yield after HPLC (crosslinker bond, 24-membered ring, OPA, then DMAC, PBS pH 7.4/DMSO, 0.53 mM, 2 steps) was determined as 34%.

The substance cyclo-(Ac-KAAACH-CONH2)-DMAC yielded a ring closure, yield after HPLC under setting [6] of 47.3%.

Turning to cyclo-(Ac-KGEAFQC-CONH2)-DMAC, the ring closure, yield after HPLC under setting [8] came out at 36.6%.

Substance cyclo-(Ac—NYRWRCKN-CONH2)-DMAC gave a ring closure, yield after HPLC (crosslinker bond, 12-membered ring, OPA, then DMAC, PBS pH 7.4/DMSO, 2 steps) of 32%.

As for cyclo-(CNSTKNLTFAMRSSGDYGEV), the ring closure, yield after HPLC (amide bond, 60-membered ring, NaNO2, MPAA, TCEP (NCL), 6 M Gn.HCl/0.2 M phosphate buffer, 0.37 mM) stood at 31%. The ring closure, conversion in data set [1] (setting [4]) worked out at 89.2%.

With “cyclo-(CPIEDRPMC) (disulfide 1-9 (inferred)) [CK-9]”, the cell targeting result in data set [2] is recorded as “specifically target poorly differentiated colon carcinoma cells”.

Under “amide bond, 60-membered ring, NaNO2, MPAA, TCEP (NCL), 6 M Gn.HCl/0.2 M phosphate buffer, 0.2 mM”, cyclo-(CSQGTFTSDYSKYLDSRRAQ) yielded a ring closure, yield after HPLC of 71.7%. Besides, the ring closure, conversion in data set [1] (36-membered ring, OPA, PBS pH 7.4/DMSO) worked out at 71.4%.

Consider cyclo-(CSSLDEPGRGGFSSESKV), for which the ring closure, yield after HPLC (amide bond, 54-membered ring, NaNO2, MPAA, TCEP (NCL), 6 M Gn.HCl/0.2 M phosphate buffer, 0.14 mM) was 68.8%. For the same substance, the ring closure, conversion in data set [1] (15-membered ring, OPA, PBS pH 7.4/DMSO) worked out at 86.9%.
